# Assay results reported in patent publication US12122756B2, “Biflavone compound against I-type herpes simplex virus, and preparation method therefor and use thereof” (priority 2022, dated 2024).
# Tests used:
# [1] = Solubility (highest solubility used as starting concentration; water solubility)
# HSV-I = test: Action mode: inhibitory effect on HSV-I replication (CPE, CCK-8); assay type: cell-based, Herpes simplex virus type I
# Description: (2) The inhibitory effect of drugs on HSV-I replication: Vero cells were seeded in a 96-well plate and grew into a monolayer, before adding HSV-I virus solution at 100 μl/well, followed by incubation for 1 hour. Then, the cell maintenance solution containing different concentrations of sample was replaced, and the cells were further cultured. After 72 hours, the effect on the replication of virus was determined using the CCK-8 method.
structure (smiles),measurement,setting,value
"COc1c(O)c(Cc2c(O)c(OC)c(O)c3c(=O)c(-c4ccc(O)c(S(=O)(=O)[O-])c4)coc23)c2occ(-c3ccc(O)c(S(=O)(=O)[O-])c3)c(=O)c2c1O.[Na+].[Na+] [Compound 2, 8,8″-methylene-di-(sodiumtectorigenin-5′-sulphonate)]",solubility,[1],1600 µg/mL
same,Effect on viral replication: OD value,"HSV-I; 5.97 μg/ml, n = 6",0.33 ± 0.05
same,Effect on viral replication: OD value,"HSV-I; 11.94 μg/ml, n = 6",0.36 ± 0.07
same,Effect on viral replication: OD value,"HSV-I; 23.88 μg/ml, n = 6",0.62 ± 0.05
same,Effect on viral replication: OD value,"HSV-I; 47.45 μg/ml, n = 6",0.80 ± 0.05
same,Effect on viral replication: OD value,"HSV-I; 95.50 μg/ml, n = 6",0.97 ± 0.09
same,Effect on viral replication: OD value,"HSV-I; 191.00 μg/ml, n = 6",0.98 ± 0.12
same,Effect on viral replication: OD value,"HSV-I; 382.00 μg/ml, n = 6",0.99 ± 0.02
same,effect on viral replication (in words),HSV-I; CPE method,significant effect
same,inhibition at 5.97 µg/mL,"HSV-I; Human alphaherpesvirus 1, 5.97 μg/ml, n = 6, read-out: Effect on viral replication: Inhibition rate (%)",13.1%
same,inhibition at 11.94 µg/mL,"HSV-I; Human alphaherpesvirus 1, 11.94 μg/ml, n = 6, read-out: Effect on viral replication: Inhibition rate (%)",17.6%
same,inhibition at 23.88 µg/mL,"HSV-I; Human alphaherpesvirus 1, 23.88 μg/ml, n = 6, read-out: Effect on viral replication: Inhibition rate (%)",50.5%
same,inhibition at 47.45 µg/mL,"HSV-I; Human alphaherpesvirus 1, 47.45 μg/ml, n = 6, read-out: Effect on viral replication: Inhibition rate (%)",73.8%
same,inhibition at 95.5 µg/mL,"HSV-I; Human alphaherpesvirus 1, 95.50 μg/ml, n = 6, read-out: Effect on viral replication: Inhibition rate (%)",96.2%
same,inhibition at 191 µg/mL,"HSV-I; Human alphaherpesvirus 1, 191.00 μg/ml, n = 6, read-out: Effect on viral replication: Inhibition rate (%)",98%
same,inhibition at 382 µg/mL,"HSV-I; Human alphaherpesvirus 1, 382.00 μg/ml, n = 6, read-out: Effect on viral replication: Inhibition rate (%)",98.8%
